Experimental data published in US8426447B2, “Spiro-tricyclic ring compounds as beta-secretase modulators and methods of use” (Amgen Inc., priority 2008, dated 2013).
Each block holds one compound with its values, some of them ahead of it.

Experiments:
BACE1 [1] = molecular target: T1, BACE1 (Homo sapiens, UniProt P56817); assay: In Vitro Enzymatic BACE FRET (Fluorescence Resonance Energy Transfer) Assay; type: biochemical; details: read-out: BACE1 FRET assay
Protocol: In Vitro Enzymatic BACE FRET (Fluorescence Resonance Energy Transfer) Assay (Enzyme Assay Data in the Example Tables I, II, III & IV) The assay buffer used in this screen is 0.05 M acetate, pH 4.2, 10% DMSO final, 100 uM genapol (which is a nonionic detergent, below its Critical Micelle Concentration). […] This assay is effectively started by the addition of FRET substrate (50 nM) and the combination is incubated for one hour. The FRET assay is terminated with by addition of Tris buffer, which raises the pH to neutrality, and the fluorescence is determined. The FRET substrate is a peptide with commercially available fluorophore and quencher, on opposite sides of the BACE cleavage site. […]

BACE1 [2] = molecular target: T1, BACE1; assay: In Vitro BACE Cell-based Assay (HEK cell assay): Aβ40 in conditioned medium of cells stably expressing Amyloid Precursor Protein, sandwich ELISA; details: read-out: HEK cell assay
Protocol: In Vitro BACE Cell-based Assay
The cell-based assay measures inhibition or reduction of Aβ40 in conditioned medium of test compound treated cells expressing amyloid precursor protein.
Cells stably expressing Amyloid Precursor Protein (APP) were plated at a density of 40K cells/well in 96 well plates (Costar). The cells were cultivated for 24 hours at 37° C. and 5% CO2 in DMEM supplemented with 10% FBS. The test compounds were then added to cells in 10-point dose response concentrations with the starting concentration being either 100 μM or 10 μM. The compounds were diluted from stock solutions in DMSO and the final DMSO concentration of the test compounds on cells was 0.1%. After 24 h of incubation with the test compounds the supernatant conditioned media was collected and the Aβ 40 levels were determined using a sandwich ELISA. The IC50 of the compound was calculated from the percent of control or percent inhibition of Aβ 40 as a function of the concentration of the test compound.
The sandwich ELISA to detect Aβ 40 was performed in 96 well microtiter plates, which were pre-treated with goat anti-rabbit IgG (Pierce). The capture and detecting antibody pair that were used to detect Aβ 40 from cell supernatants were affinity purified pAb40 (Biosource) and biotinylated 6E10 (Signet Labs Inc.), respectively. The optimal concentration for the pAb40 antibody was 3 μg/ml in Superblock/TBS (Pierce) that was supplemented with 0.05% Tween 20 (Sigma).
Cellular supernatants were incubated with the capture antibody for 3 h at 4° C., followed by 3 wash steps in TBS-tween (0.05%). The detecting antibody incubation was for 2 h at 4° C., again followed by the wash steps as described previously. The final readout of the ELISA is Time-Resolved Fluorescence (counts per minute) using Delfia reagents Streptavidin-Europium and Enhancement solutions (Perkin Elmer) and the Victor 2 multilabel counter (Perkin Elmer).

[3] = in vitro BACE FRET enzyme assay, IC50 class symbols
[4] = HEK cell-based assay, Aβ40 in conditioned medium, IC50 class symbols

T1 sequence (P56817 46-501, species assumed): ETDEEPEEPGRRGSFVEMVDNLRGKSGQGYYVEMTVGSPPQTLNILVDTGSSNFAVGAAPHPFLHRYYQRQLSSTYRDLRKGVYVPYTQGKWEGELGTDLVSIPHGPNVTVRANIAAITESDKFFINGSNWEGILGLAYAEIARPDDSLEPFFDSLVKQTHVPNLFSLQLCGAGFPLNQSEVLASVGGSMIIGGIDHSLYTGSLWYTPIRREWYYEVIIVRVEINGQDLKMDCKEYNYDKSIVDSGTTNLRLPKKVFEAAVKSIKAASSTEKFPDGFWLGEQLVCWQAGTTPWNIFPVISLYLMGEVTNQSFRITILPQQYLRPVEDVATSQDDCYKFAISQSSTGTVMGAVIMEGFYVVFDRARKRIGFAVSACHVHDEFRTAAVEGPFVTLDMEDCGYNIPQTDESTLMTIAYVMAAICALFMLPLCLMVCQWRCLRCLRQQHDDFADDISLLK

IC50 (BACE1 [1]; Table IV, class symbols): 0.1 to 1 µM | IC50 (BACE1 [2]; Table IV, class symbols): 0.1 to 1 µM
SMILES: NC1=N[C@@]2(CO1)c1cnccc1Oc1ccc(-c3cccnc3)cc12 [compound 556]

IC50 (BACE1 [1]; Table III, IC50's in uM ranges): < 0.1 µM | IC50 (BACE1 [2]; Table III, IC50's in uM ranges): < 0.1 µM
SMILES: CC(C)(C#N)COc1ccc2c(c1)[C@]1(COC(N)=N1)c1cc(-c3cccnc3)ccc1O2 [Example 134, (S)-3-(2-amino-2′-(pyridin-3-yl)-5H-spiro[oxazole-4,9′-xanthene]-7′-yloxy)-2,2-dimethylpropanenitrile]

IC50 (BACE1 [1]; Table III, IC50's in uM ranges): < 0.1 µM | IC50 (BACE1 [2]; Table III, IC50's in uM ranges): 0.1 to 1 µM
SMILES: CC(C)(C)C#Cc1ccc2c(c1)[C@@]1(COC(N)=N1)c1cc(-c3ccc(F)nc3)ccc1O2 [147b]

IC50 (BACE1 [1]; Table III, IC50's in uM ranges): < 0.1 µM | IC50 (BACE1 [2]; Table III, IC50's in uM ranges): < 0.1 µM
SMILES: CC(C)(C)CCc1ccc2c(c1)[C@@]1(COC(N)=N1)c1cc(-c3cccnc3)cnc1O2 [compound 161]

IC50 (BACE1 [1]; Table III, IC50's in uM ranges): < 0.1 µM | IC50 (BACE1 [2]; Table III, IC50's in uM ranges): 0.1 to 1 µM
SMILES: CC(C)(O)COc1ccc2c(c1)[C@]1(COC(N)=N1)c1cc(-c3ccccc3)ccc1O2 [compound 221]

IC50 (BACE1 [1]): 1 to 5 µM | IC50 (BACE1 [2]): 1 to 5 µM
SMILES: COc1ccncc1-c1ccc2c(c1)[C@]1(COC(N)=N1)c1cc(OCC(C)(C)C)ccc1O2 [compound 778]

IC50 (BACE1 [1]): < 0.1 µM | IC50 (BACE1 [2]): 0.1 to 1 µM
SMILES: CC(C)(C)COc1ccc2c(c1)[C@@]1(COC(N)=N1)c1cc(-c3cncs3)ccc1O2 [compound 781]

IC50 (BACE1 [1]; Table IV, class symbols): < 0.1 µM | IC50 (BACE1 [2]; Table IV, class symbols): < 0.1 µM
SMILES: COC(C)(C)COc1cc2c(cc1F)Oc1ccc(-c3cccnc3)cc1[C@@]21COC(N)=N1 [compound 544]

IC50 (BACE1 [1]; Table IV, class symbols): < 0.1 µM | IC50 (BACE1 [2]; Table IV, class symbols): 0.1 to 1 µM
SMILES: NC1=N[C@@]2(CO1)c1cc(-c3cccnc3)ccc1Oc1c(F)cccc12 [compound 592]

IC50 (BACE1 [1]; Table III, IC50's in uM ranges): 0.1 to 1 µM | IC50 (BACE1 [2]; Table III, IC50's in uM ranges): 0.1 to 1 µM
SMILES: CC(C)(C)CC(O)c1ccc2c(c1)[C@@]1(COC(N)=N1)c1cc(-c3ccc(F)nc3)ccc1O2 (stereo partly shown) [162b]

IC50 (BACE1 [1]): < 0.1 µM | IC50 (BACE1 [2]): < 0.1 µM
SMILES: NC1=N[C@]2(CO1)c1cc(C3=CCOCC3)ccc1Oc1ccc(-c3cccnc3)cc12 [compound 715]

IC50 (BACE1 [1]; Table II): 1 to 5 µM | IC50 (BACE1 [2]; Table II, Aβ40, 24 h incubation): > 5 µM
SMILES: COc1ccc2c(c1)[C@]1(COC(N)=N1)c1cc(-c3cncnc3)cnc1O2 [Example 54, (5R)-7-methoxy-3-(5-pyrimidinyl)spiro[chromeno[2,3-b]pyridine-5,4′-[1,3]oxazol]-2′-amine]

Further lines, the compound ahead of its results:

SMILES: NC1=N[C@@]2(CO1)c1cc(-c3ccc(F)cc3)ccc1Oc1ncc(C3=CCOCC3)cc12 [compound 583]
IC50 (BACE1 [1]; Table IV, class symbols): < 0.1 µM | IC50 (BACE1 [2]; Table IV, class symbols): < 0.1 µM

SMILES: CC(C)(C#N)COc1ccc2c(c1)[C@]1(COC(N)=N1)c1cc(C#CC3CC3)ccc1O2 [compound 178]
IC50 (BACE1 [1]; Table III, IC50's in uM ranges): < 0.1 µM | IC50 (BACE1 [2]; Table III, IC50's in uM ranges): 0.1 to 1 µM

SMILES: NC1=N[C@]2(CO1)c1cc(-c3cc4ccccc4s3)ccc1Oc1ncccc12 [compound 618]
IC50 (BACE1 [1]; Table IV, class symbols): > 5 µM | IC50 (BACE1 [2]; Table IV, class symbols): 1 to 5 µM

SMILES: CC(C)(F)COc1cnc2c(c1)[C@]1(COC(N)=N1)c1cc(C#CC3CC3)ccc1O2 [compound 382]
IC50 (BACE1 [1]; [3]): < 0.1 µM | IC50 (BACE1 [2]; [4]): < 0.1 µM

SMILES: NC1=N[C@]2(CO1)c1cc(Br)ccc1Oc1ccc(Oc3ccccn3)cc12 [compound 198, (4S)-2′-bromo-7′-(2-pyridinyloxy)spiro[1,3-oxazole-4,9′-xanthen]-2-amine]
IC50 (BACE1 [1]; Table III, IC50's in uM ranges): 0.1 to 1 µM | IC50 (BACE1 [2]; Table III, IC50's in uM ranges): 1 to 5 µM

SMILES: NC1=N[C@@]2(CO1)c1cc(-c3cccnc3F)ccc1Oc1ccc(Cl)nc12 [compound 392]
IC50 (BACE1 [1]; [3]): 0.1 to 1 µM | IC50 (BACE1 [2]; [4]): 0.1 to 1 µM

SMILES: NC1=N[C@@]2(CO1)c1cc(-c3cncnc3)ccc1Oc1ccc([C@@H]3CCOC3)cc12 [compound 420]
IC50 (BACE1 [1]): < 0.1 µM | IC50 (BACE1 [2]; HEK cells): 0.1 to 1 µM

SMILES: CC(C)(C)CC(=O)c1ccc2c(c1)[C@]1(CSC(N)=N1)c1cc(-c3cncnc3)ccc1O2 [compound 761]
IC50 (BACE1 [1]): < 0.1 µM | IC50 (BACE1 [2]): 0.1 to 1 µM

SMILES: NC1=N[C@]2(CO1)c1cc(C3=CCOCC3)ccc1Oc1cc(F)c(-c3cncnc3)cc12 [compound 529]
IC50 (BACE1 [1]): < 0.1 µM | IC50 (BACE1 [2]; HEK cells): < 0.1 µM

SMILES: CC(C)(C)COc1ccc2c(c1)[C@]1(COC(N)=N1)c1cc(C(=O)N3CCC3)ccc1O2 [compound 608]
IC50 (BACE1 [1]; Table IV, class symbols): 0.1 to 1 µM | IC50 (BACE1 [2]; Table IV, class symbols): 0.1 to 1 µM

SMILES: NC1=N[C@@]2(CO1)c1cc(-c3cc(F)ccc3F)ccc1Oc1ncc(N3C[C@@H]4C[C@H]3CO4)cc12 [compound 453]
IC50 (BACE1 [1]): < 0.1 µM | IC50 (BACE1 [2]; HEK cells): < 0.1 µM
